What was measured:
Bcl-2 = Bcl-2 protein expression in HCT116 (Western blot); type: cell-based, human; details: 10, 25 and 50 µM, 72 h
Experimental: (§1) Macrophages were incubated with the compounds for 30 min prior to the addition of 10 ng/mL LPS for 24 h. Protein levels for COX-2 and NOS2 were detected in LPS-stimulated macrophages. As previously described, 10 µg of total protein was assessed. The primary antibodies were developed and characterized as previously described: for COX-2, mouse monoclonal antibody anti-COX-2 (clone COX-214, 1/5000); for NOS2, rabbit polyclonal antibody anti-NOS2 (dilution1/2000 [33]). Antibodies anti-phospho-NF-κB (3033S), phospho-IκBα (9246S), and total IκBα (4814S) were from Cell Signaling Technologies (Danvers, MA, USA). Total NF-κB C-20 (sc-372) was from Santa Cruz Biotechnologies (Dallas, TX, USA), and mouse β-actin (dilution 1/10,000) (Sigma-Aldrich, A5441). Clarity™ western ECL substrate (Bio-Rad Laboratories 10-5061) was used according to the manufacturer’s instructions to reveal positive bands visualized using Bio-Rad ChemiDoc. For Bcl-2 and cleaved PARP-1, HCT116 cells were plated in 6-well plates (200,000 cells per well) for 24 h, and treated with compounds 1 and 2 at 10, 25, and 50 µM for 72 h. Supernatants and cells were collected and lysed using RIPA lysis buffer containing inhibitors of protease. […]

HCT116 cells [1] = test: HCT116 proliferation (WST-1 assay); type: cell-based, human; details: for inhibition of HCT116 cell proliferation: 50 and 100 µM, 72 h; for IC50: Homo sapiens, HCT-116, 72 h
Experimental: WST-1 assay was used to determine the effect of these compounds on HCT116 proliferation. Cells were plated in 96-well plate in triplicates (5000 cells per well) for 24 h and treated with 50 and 100 µM of the different compounds for 72 h. […] Culture medium without or with 10% FBS alone was used as basal and maximal proliferation, respectively. Results were expressed as percentage of cells incubated with 10% FBS alone.
(§2) Densitometric analyses were performed using ImageJ software (NIH, MA, USA). The ratio of the different analyzed bands to β-actin was determined and data are represented as fold change compared to the LPS-treated cells. Percentage of viable cells for proliferation assay was determined as percentage to control (non-treated cells). For TUNEL assay, apoptotic cells were quantified, and results were expressed as percentage to positive cells (cleaved DNA) compared to control (non-treated cells). Statistical analysis was performed using one-way ANOVA, followed by Dunnett’s multiple comparisons test using GraphPad Prism software. Differences were considered significant when p < 0.05.

PARP-1 = test: Cleaved PARP-1 protein in HCT116 (Western blot); type: cell-based, human; details: 10, 25 and 50 µM, 72 h
Experimental: as §1

HCT116 cells [2] = test: TUNEL assay for apoptosis (DNA cleavage) in HCT116; type: cell-based, human; details: 10, 25 and 50 µM, 72 h
Experimental: Terminal deoxynucleotidyl transferase dUTP nick-end labeling (TUNEL) assay (Sigma Aldrich 11684795910) was conducted to detect late phase of apoptosis in HCT116 cells. Cells were plated in 6-well plate (200,000 cells per well) for 24 h, and treated with compounds 1 and 2 at 10, 25, and 50 µM for 72 h. Adherent cells and cells in supernatants were collected and fixed with 4% paraformaldehyde for 2 days and then treated with PBS containing 0.1% Triton X-100 at 4 °C for 2 min. Cells were then stained with the TUNEL reagent for 1 h, and positive signals were quantified using the Guava EasyCyte8 Flow Cytometer-Millipore according to the manufacturer’s instructions.
as §2

NO = NO (nitrite) formation in LPS-treated macrophages (BMDM); type: cell-based, C57BL/6J mice; details: for effect on NO production: 50 µM, LPS 24 h; for IC50: compounds 30 min prior to 10 ng/mL LPS for 24 h
Experimental: C57BL/6J (10–15 weeks old) male mice were obtained from the animal care facility at the American University of Beirut. All animal procedures were performed following the recommendations of the IACUC (Institutional Animal Care and Use Committee approval 16-09-M379). BMDMs were prepared and characterized as described previously by our group. BMDMs were isolated from C57BL/6J mice by flushing the femur and tibia with RPMI-1640 culture media (Sigma-Aldrich R7388), and cells were collected and centrifuged at 300× g for 5 min. The supernatant was discarded, and the pellet was resuspended in 2 mL red blood lysis 10% (Sigma-Aldrich R7767) medium in PBS and incubated for 5 min at room temperature. After diluting the suspension of cells with 5 mL of RPMI containing 10% FBS and 1% penicillin–streptomycin, cells were centrifuged at 300× g for 5 min, and the cell pellet was resuspended in RPMI media containing 10% FBS supplemented with 15% L929-conditioned medium containing macrophage-colony stimulating factor (M-CSF1) and plated on […]. Cells were allowed to proliferate and differentiate for 5–6 days. Cells were harvested, washed, and allowed to adhere overnight in RPMI containing 10% FBS for treatment. Cells were previously characterized by flow cytometry as macrophages using this method. […] Cells were plated at 0.8 × 10^6 cells per 3.8 cm^2 well [27].
BMDMs were then treated with different concentrations of the benzofuran and dihydrobenzofuran derivatives for 30 min prior to the addition of 10 ng/mL LPS for 24 h. […] The supernatants were assessed for IL-6, PGE2, CCL2, and nitrite, the stable derivative of NO, as described previously.
IL-6, CCL2, nitrite (for NO), and PGE2 concentrations from 3–5 independent experiments were expressed as percentage of LPS alone and as mean ± SEM. COX activity was determined as percentage of PGE2 produced from exogenous arachidonic acid. Curve fitting and calculation of IC50 values were performed using GraphPad Prism (version 9.5.1 Software, La Jolla, CA, USA).

Structure (SMILES) | expression of antiapoptotic protein Bcl-2 (Bcl-2) | inhibition of HCT116 cell proliferation (HCT116 cells [1]) | IC50 (HCT116 cells [1]) [µM] | protein level of cleaved PARP-1 (PARP-1) | percentage of apoptotic cells, TUNEL (HCT116 cells [2]) | effect on NO production (NO) | IC50 (NO; Mus musculus, Macrophage) [µM] | IC50 (NO) [µM]
COC(=O)/C=C1/Oc2ccc(Br)cc2C1(F)F [Compound 1] | decreased | more than 50% | 19.5 | increase | concentration-dependent increase | – | – | –
O=C(O)/C=C1/Oc2ccc(Br)cc2C1(F)F [Compound 2] | decreased | more than 50% | 24.8 | increase | concentration-dependent increase | significantly decreased | 2.4 | 2.42
O=C(O)/C=C1\Oc2ccc(Br)cc2C1(F)F [Compound 3] | – | – | – | – | – | significantly decreased | 5.2 | 5.23
